Molecular target: mGluR4 (Homo sapiens, UniProt Q14833)
Test: mGlu4 PAM potentiation assay, CHO cells transfected with human mGluR4, Ca2+-sensitive dye fluorescence
Assay type: cell-based
Protocol: The disclosed compounds and compositions can be evaluated for their ability to act as a potentiator of metabotropic glutamate receptor activity, in particular mGluR4 activity, by any suitable known methodology known in the art. For example, Chinese Hamster Ovary (CHO) cells transfected with human mGluR4 or HEK cells co-transfected with rat mGluR4 and the G-protein regulated Inwardly Rectifying Potassium channel (GIRK) were plated in clear bottom, assay plates for assay in a Hamamatsu FDSS Fluorometric Plate Reader. The cells were loaded with either a Ca2+-sensitive fluorescent dye or the thallium responsive dye and the plates were washed and placed into a suitable kinetic plate reader. For human mGluR4 assays, a fluorescence baseline was established for 3-5 seconds, the disclosed compounds were then added to the cells, and the response in cells was measured. Approximately two and a half minutes later, a concentration of mGluR4 orthosteric agonist (e.g. glutamate, L-AP4, or L-SOP) eliciting approximately 20% (EC20) of the maximal agonist response was added to the cells, and the response was measured. Two minutes later, a concentration of mGluR4 agonist (e.g. glutamate, L-AP4, or L-SOP) eliciting 80% (EC80) of the maximal agonist response was added to the cells, and the response was measured. For rat mGluR4/GIRK experiments, a baseline was established for approximately five seconds, disclosed compounds were added, and either an EC20 or EC80 concentration of agonist was added approximately two and one half minutes later. Potentiation or antagonism of the agonist response of mGluR4 by the disclosed compounds was observed as an increase or decrease in response to the EC20 concentration of agonist in the presence of compound compared to the response to agonist in the absence of compound. Similarly, potentiation or antagonism of the agonist response of mGluR4 by the disclosed Compounds was observed as an increase or decrease in response to the EC80 concentration of agonist in the presence of compound compared to the response to agonist in the absence of compound.
The above described assay operated in two modes. In the first mode, a range of concentrations of the disclosed compounds are added to cells, followed by a single fixed concentration of agonist. If the compound acts as a potentiatior, an EC50 value for potentiation and a maximum extent of potentiation by the compound at this concentration of agonist is determined by non-linear curve fitting. If the compound acts as an antagonist, an IC50 value is determined by non-linear curve fitting. In the second mode, several fixed concentrations of the disclosed compounds are added to various wells on a plate, followed by a range in concentrations of agonist for each concentration of disclosed compound. The EC50 values for the agonist at each concentration of compound are determined by non-linear curve fitting. A decrease in the EC50 value of the agonist with increasing concentrations of the sample compound (a leftward shift of the agonist concentration-response curve) is an indication of the degree of mGluR4 potentiation at a given concentration of the sample compound. A decrease in the maximal response of the agonist with increasing concentrations of the sample compounds, with or without a rightward shift in agonist potency, is an indication of the degree of antagonism at mGluR4. The second mode also indicates whether the sample compounds also affect the maximum response to mGluR4 to agonists.

mGluR4, sequence (Q14833 33-912 limits assumed): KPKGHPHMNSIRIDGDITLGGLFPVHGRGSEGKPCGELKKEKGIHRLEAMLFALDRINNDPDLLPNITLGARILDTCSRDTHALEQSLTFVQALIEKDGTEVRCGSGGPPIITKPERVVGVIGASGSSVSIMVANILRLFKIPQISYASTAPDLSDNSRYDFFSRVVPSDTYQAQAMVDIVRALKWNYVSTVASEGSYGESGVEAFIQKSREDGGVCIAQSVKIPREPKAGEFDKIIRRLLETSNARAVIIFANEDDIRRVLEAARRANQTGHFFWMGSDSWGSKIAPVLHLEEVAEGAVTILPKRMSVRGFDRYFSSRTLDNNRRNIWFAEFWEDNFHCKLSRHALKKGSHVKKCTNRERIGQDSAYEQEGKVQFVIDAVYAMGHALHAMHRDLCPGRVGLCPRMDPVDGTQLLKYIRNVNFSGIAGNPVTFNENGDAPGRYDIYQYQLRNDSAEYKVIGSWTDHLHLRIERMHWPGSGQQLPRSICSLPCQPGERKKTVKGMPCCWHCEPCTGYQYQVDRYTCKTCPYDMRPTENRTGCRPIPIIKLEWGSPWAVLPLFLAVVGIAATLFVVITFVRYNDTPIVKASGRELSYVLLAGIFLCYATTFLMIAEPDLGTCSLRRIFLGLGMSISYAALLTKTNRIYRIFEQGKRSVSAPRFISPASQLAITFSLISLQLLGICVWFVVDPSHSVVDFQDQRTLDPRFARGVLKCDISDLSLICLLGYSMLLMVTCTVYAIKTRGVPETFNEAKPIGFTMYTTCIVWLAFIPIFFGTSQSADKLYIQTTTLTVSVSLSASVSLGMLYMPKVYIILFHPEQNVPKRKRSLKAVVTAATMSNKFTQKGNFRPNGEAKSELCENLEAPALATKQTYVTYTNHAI

## CO[C@@H](C)COc1nccc2cc(NC(=O)c3ccccn3)ccc12 [Compound 51]
  EC50: 0.364 µM

## Nc1cccnc1C(=O)Nc1ccc2c(Oc3ccncc3)nccc2c1 [Compound 112]
  EC50: 0.394 µM

## Cn1ccnc1C(=O)Nc1ccc2c(OCC3CCOC3)nccc2c1 (centres unmarked) [Compound 59]
  EC50: 0.817 µM

## Nc1cccnc1C(=O)Nc1ccc2c(OCC3CCOC3)nccc2c1 (centres unmarked) [Compound 16]
  EC50: 0.0714 µM

## CC1(C)COCCC1Nc1nccc2cc(NC(=O)c3ncccc3N)ccc12 (centres unmarked) [Compound 77]
  EC50: 0.922 µM

## Nc1nccnc1C(=O)Nc1ccc2c(OCC3CCOC3)nccc2c1 (centres unmarked) [Compound 99]
  EC50: 0.0831 µM

## Cc1ccoc1C(=O)Nc1ccc2c(OCC3CCOCC3)nccc2c1 [Compound 111]
  EC50: 0.122 µM

## O=C(Nc1cc(F)c2c(OCC3CCOC3)nccc2c1)c1cccc(F)n1 (centres unmarked) [Compound 82]
  EC50: 0.129 µM

## Nc1cccnc1C(=O)Nc1ccc2c(OCC3CCOCC3)ncc(F)c2c1 [Compound 66]
  EC50: 0.152 µM

## O=C(Nc1ccc2c(OC3CCOCC3F)nccc2c1)c1ccccn1 (centres unmarked) [Compound 40]
  EC50: 0.183 µM

## Nc1cccnc1C(=O)Nc1ccc2c(OCC3COCCO3)nccc2c1 (centres unmarked) [Compound 116]
  EC50: 0.0637 µM

## CC1(COc2nccc3cc(NC(=O)c4ncccc4O)ccc23)CCOCC1 [Compound 33]
  EC50: 0.269 µM

## O=C(Nc1ccc2c(OCC3CCOC3)nccc2c1)c1nc(Cl)ccc1F (centres unmarked) [Compound 89]
  EC50: 0.822 µM

## CC(C)(C)OCCOc1nccc2cc(NC(=O)c3ncccc3N)ccc12 [Compound 29]
  EC50: 0.794 µM

## O=C(Nc1cnc2c(OCC3CCOCC3)nccc2c1)c1ccc(F)cn1 [Compound 122]
  EC50: 0.454 µM

## O=C(Nc1ccc2c(OCC3CCOC3)nccc2c1)c1ncc[nH]1 (centres unmarked) [Compound 58]
  EC50: 0.217 µM

## CCOCCOc1nccc2cc(NC(=O)c3ccccn3)ccc12 [Compound 3]
  EC50: 0.436 µM

## O=C(Nc1ccc2c(OCC3COCCO3)ncc(F)c2c1)c1ccccn1 (centres unmarked) [Compound 69]
  EC50: 0.421 µM

## CC1CC(COc2nccc3cc(NC(=O)c4ccccn4)ccc23)CCO1 (centres unmarked) [Compound 37]
  EC50: 0.0886 µM

## O=C(Nc1cc(F)c2c(OCC3CCOCC3)nccc2c1)c1ccc(F)cn1 [Compound 97]
  EC50: 0.0521 µM

## O=C(Nc1ccc2c(OCC3COCCO3)ncc(F)c2c1)c1ncccc1O (centres unmarked) [Compound 70]
  EC50: 0.71 µM

## CC1(C)CC(Oc2nccc3cc(NC(=O)c4ncc(F)cc4F)cc(F)c23)CCO1 (centres unmarked) [Compound 103]
  EC50: 0.0766 µM

## O=C(Nc1cc(F)c2c(OCC3CCOC3)nccc2c1)c1ccccn1 (centres unmarked) [Compound 78]
  EC50: 0.0393 µM

## O=C(Nc1ccc2c(OC3CCOCC3)nccc2c1)c1ccccn1 [Compound 12]
  EC50: 0.411 µM

## CC1CC(Oc2nccc3cc(NC(=O)c4ncccc4O)ccc23)CCO1 (centres unmarked) [Compound 45]
  EC50: 0.447 µM

## CO[C@@H](C)COc1nccc2cc(NC(=O)c3ncccc3N)ccc12 [Compound 52]
  EC50: 0.288 µM

## CC(C)OCCOc1nccc2cc(NC(=O)c3ccccn3)ccc12 [Compound 26]
  EC50: 0.264 µM

## O=C(Nc1ccc2c(OCC3CCOC3)nccc2c1)c1ccc(O)cn1 (centres unmarked) [Compound 108]
  EC50: 0.0659 µM

## O=C(Nc1ccc2c(OCC3CCOCC3)nccc2c1)c1cccc(F)n1 [Compound 109]
  EC50: 0.0915 µM

## CC1(C)CC(Oc2nccc3cc(NC(=O)c4ncccc4O)ccc23)CCO1 (centres unmarked) [Compound 25]
  EC50: 0.147 µM

## Nc1cccnc1C(=O)Nc1ccc2c(OCC3CCOC3)ncc(F)c2c1 (centres unmarked) [Compound 63]
  EC50: 0.0887 µM

## O=C(Nc1ccc2c(OCC3CCOC3)nccc2c1)c1ccc(F)cn1 (centres unmarked) [Compound 72]
  EC50: 0.211 µM

## CC1CC(COc2nccc3cc(NC(=O)c4ncccc4N)ccc23)CCO1 (centres unmarked) [Compound 38]
  EC50: 0.135 µM

## CCOCCOc1nccc2cc(NC(=O)c3ncccc3N)ccc12 [Compound 4]
  EC50: 0.354 µM

## CC(C)OCCOc1nccc2cc(NC(=O)c3ncccc3N)ccc12 [Compound 27]
  EC50: 0.286 µM

## Nc1cccnc1C(=O)Nc1ccc2c(O[C@H]3CCOC3)ncc(F)c2c1 [Compound 71]
  EC50: 0.493 µM

## Nc1cccnc1C(=O)Nc1ccc2c(OC3CCOCC3)nccc2c1 [Compound 13]
  EC50: 0.29 µM

## O=C(Nc1cc(F)c2c(OCC3CCOC3)nccc2c1)c1ncc(F)cc1F (centres unmarked) [Compound 83]
  EC50: 0.154 µM

## CC1CC(COc2nccc3cc(NC(=O)c4ncccc4O)ccc23)CCO1 (centres unmarked) [Compound 39]
  EC50: 0.302 µM

## CC1(C)CC(Oc2nccc3cc(NC(=O)c4ccccn4)ccc23)C(C)(C)O1 (centres unmarked) [Compound 36]
  EC50: 0.94 µM

## CC(C)(C)OCCOc1nccc2cc(NC(=O)c3ncccc3O)ccc12 [Compound 30]
  EC50: 0.493 µM

## CC1(C)CC(Oc2nccc3cc(NC(=O)c4ccc(F)cn4)cc(F)c23)CCO1 (centres unmarked) [Compound 102]
  EC50: 0.142 µM

## O=C(Nc1ccc2c(OCC3CCOC3)nccc2c1)c1cccc(F)n1 (centres unmarked) [Compound 87]
  EC50: 0.183 µM

## CC1(COc2nccc3cc(NC(=O)c4ccccn4)ccc23)CCOCC1 [Compound 31]
  EC50: 0.246 µM

## O=C(Nc1ccc2c(OCC3CCOC3)nccc2c1)c1ncc(F)cc1Cl (centres unmarked) [Compound 88]
  EC50: 0.91 µM

## O=C(Nc1ccc2c(OCC3CCOC3)ncc(F)c2c1)c1ccccn1 (centres unmarked) [Compound 60]
  EC50: 0.0829 µM

## Nc1nccnc1C(=O)Nc1ccc2c(OCC3COCCO3)nccc2c1 (centres unmarked) [Compound 117]
  EC50: 0.334 µM

## O=C(Nc1ccc2c(OCc3ccncc3)nccc2c1)c1ccc(F)cn1 [Compound 115]
  EC50: 0.1 µM

## O=C(Nc1cc(F)c2c(OCC3CCOCC3)nccc2c1)c1ccccn1 [Compound 94]
  EC50: 0.0377 µM

## O=C(Nc1ccc2c(OCC3CCOC3)nccc2c1)c1ncccc1F (centres unmarked) [Compound 18]
  EC50: 0.262 µM

## Nc1cccnc1C(=O)Nc1cnc2c(OCC3CCOCC3)nccc2c1 [Compound 121]
  EC50: 0.116 µM

## O=C(Nc1cnc2c(OCC3CCOCC3)nccc2c1)c1ccccn1 [Compound 120]
  EC50: 0.333 µM

## COCCOc1nccc2cc(NC(=O)c3ncccc3N)ccc12 [Compound 21]
  EC50: 0.227 µM

## CC1(C)CC(Oc2nccc3cc(NC(=O)c4ccccn4)ccc23)CCO1 (centres unmarked) [Compound 23]
  EC50: 0.146 µM

## O=C(Nc1ccc2c(OCC3COCCO3)nccc2c1)c1ccc(F)cn1 (centres unmarked) [Compound 119]
  EC50: 0.285 µM

## CC1(C)CC(Oc2nccc3cc(NC(=O)c4ncccc4N)ccc23)CCO1 (centres unmarked) [Compound 24]
  EC50: 0.31 µM

## O=C(Nc1cc(F)c2c(OCC3CCOCC3)nccc2c1)c1ncccc1F [Compound 96]
  EC50: 0.102 µM

## Cc1ccoc1C(=O)Nc1ccc2c(OCC3CCOC3)nccc2c1 (centres unmarked) [Compound 110]
  EC50: 0.707 µM

## O=C(Nc1ccc2c(NC3CC(F)(F)C3)nccc2c1)c1ccccn1 [Compound 75]
  EC50: 0.715 µM

## O=C(Nc1ccc2c(OCC3CCOC3)nccc2c1)c1nccs1 (centres unmarked) [Compound 56]
  EC50: 0.21 µM

## Nc1cccnc1C(=O)Nc1ccc2c(OC3CCOCC3F)nccc2c1 (centres unmarked) [Compound 41]
  EC50: 0.0836 µM

## CC1COCC1COc1nccc2cc(NC(=O)c3ncccc3N)ccc12 (centres unmarked) [Compound 47]
  EC50: 0.456 µM

## CC1(C)CC(Oc2nccc3cc(NC(=O)c4ncccc4F)cc(F)c23)CCO1 (centres unmarked) [Compound 101]
  EC50: 0.12 µM

## Nc1cccnc1C(=O)Nc1cc(F)c2c(OCC3CCOCC3)nccc2c1 [Compound 95]
  EC50: 0.106 µM

## O=C(Nc1cc(F)c2c(OCC3CCOC3)nccc2c1)c1ccc(F)cn1 (centres unmarked) [Compound 81]
  EC50: 0.0816 µM

## O=C(Nc1ccc2c(OCC3CCOC3)nccc2c1)c1nc(F)ccc1F (centres unmarked) [Compound 74]
  EC50: 0.8 µM

## CO[C@@H](C)COc1nccc2cc(NC(=O)c3ncccc3O)ccc12 [Compound 53]
  EC50: 0.244 µM

## Nc1cccnc1C(=O)Nc1ccc2c(OC[C@@H]3CCOC3)nccc2c1 [Compound 61]
  EC50: 0.114 µM

## CC1(C)CC(COc2nccc3cc(NC(=O)c4ccccn4)ccc23)CCO1 (centres unmarked) [Compound 34]
  EC50: 0.115 µM

## O=C(Nc1ccc2c(OCC3CCOC3)nccc2c1)c1ncc(F)cc1F (centres unmarked) [Compound 73]
  EC50: 0.992 µM

## Nc1cccnc1C(=O)Nc1ccc2c(OCC3CCOCC3)nccc2c1 [Compound 2]
  EC50: 0.108 µM

## Nc1cccnc1C(=O)Nc1ccc2c(OCC3CCCCO3)nccc2c1 (centres unmarked) [Compound 9]
  EC50: 0.242 µM

## O=C(Nc1ccc2c(OCC3CCOCC3)nccc2c1)c1ccccn1 [Compound 1]
  EC50: 0.056 µM

## O=C(Nc1ccc2c(OC3CCOCC3F)nccc2c1)c1ncccc1O (centres unmarked) [Compound 42]
  EC50: 0.0922 µM
